Data set [1] in a line: Compound was tested for the toxic effect in mice after intraperitoneal injection. In kind it is ADME, organism-based. To be noted: mouse, in vivo, ip.
Data set [2] can be described thus: In vitro inhibition of 3-deoxy-D-manno-2-octulosonate cytidylyltransferase (CMP-KDO) synthetase a key enzyme in the biosynthesis of the lipopolysaccharide (LPS) of Gram-negative bacteria.
The nature of data set [3]: In vitro inhibition of (3-deoxy-D-manno-2-octulosonate cytidylyltransferase) CMP-KDO synthetase a key enzyme in the biosynthesis of the lipopolysaccharide (LPS) of Gram-negative bacteria. Details: species or system Escherichia coli.

Results on four molecules are retold here after ChEMBL document CHEMBL1124615, “A novel prodrug of an impermeant inhibitor of 3-deoxy-D-manno-2-octulosonate cytidylyltransferase has antibacterial activity” (J Med Chem, 1989).

In turn, `CSSc1cccc2cccc(COC(C)=O)c12` yielded an LD50 in data set [1] greater than 1000 mg/kg.
The same measure, in the same setting: next, `c1cc2c3c(cccc3c1)SC2`: roughly 640 mg/kg.
Turning to `NC[C@@H](O)[C@H]1O[C@H](C(=O)O)C[C@@H](O)[C@H]1O`, in data set [2], the affinity corresponds to a Ki of 4 µM.
In data set [3], `O=C(O)[C@@H]1C[C@@H](O)[C@@H](O)[C@@H]([C@H](O)CO)O1` displayed a Ki of 12 µM.
